Molecular target: TNF-α (Homo sapiens, UniProt P01375)
Assay: TNF-α Induced HEK Blue Cellular Assay
Type: cell-based
Settings: HEK Blue TNFα reporter cells, TNF-α 100 pg/ml, 24 hrs at 37° C., secreted alkaline phosphatase (QUANTI-Blue, 620 nm)
Method: TNF-α Induced HEK Bluet Cellular Assay
Test articles were diluted in DMSO and serially diluted into 384 well assay plate (Corning 3765), at final concentrations ranging from […] to 0.5 nM. HEK Blue™ TNFα reporter cells were added at a final density of 10,000 cell per well in assay media [DMEM (Gibco, cat #21063-029), 10% fetal bovine serum (ExcelBio, cat #FND500), 1% Penicillin-Streptomycin (Solarbio, cat #P1400-100]. TNF-α (R&D 210-TA-020/CF) was then added to the assay plate at a final concentration of 100 pg/ml. This plate was then incubated for 24 hrs at 37° C. and 5% CO2. Secreted alkaline phosphatase expression was then measured using QUANTI-Blue™ (Invivogen), according to manufacturer instructions and read on an Envision microplate reader at 620 nm.
Inhibition data for test compound over a range of concentration was plotted as percentage inhibition of the test compound (100%=maximum inhibition). IC50 values were determined after correcting for background [(sample read-mean of low control)/(mean of high control-mean of low control)] where by the low control is DMSO without stimulation and high control is DMSO with stimulation. The IC50 is defined as the concentration of test compound which produces 50% inhibition and was quantified using the 4 parameter logistic equation to fit the data.

Chain of TNF-α (P01375 77-233 limits assumed): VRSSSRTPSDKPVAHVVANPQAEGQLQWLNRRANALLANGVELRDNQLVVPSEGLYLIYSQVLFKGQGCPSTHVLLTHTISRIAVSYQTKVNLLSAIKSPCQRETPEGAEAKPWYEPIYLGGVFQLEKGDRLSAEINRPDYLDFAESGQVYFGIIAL

Row | Structure (SMILES) | IC50 [nM]
1 | Cc1nc2cc(F)c(-c3ccc(P(C)(C)=O)nc3)nc2c(N[C@H](CO)c2cc(C#N)ccc2F)c1Cl (single isomer, unassigned) [Example 63] | 10000 to 30000
2 | Cc1nc2cc(F)c(-c3ccc(P(C)(C)=O)nc3)nc2c(N[C@@H](CO)c2cc(C#N)ccc2F)c1Cl (single isomer, unassigned) [Example 64] | 10000 to 30000
3 | Cc1nc2cc(F)c(-c3ccc(P(C)(C)=O)nc3)cc2c(N[C@H](C)c2cncnc2)c1Cl (single isomer, unassigned) [Example 100] | 10000 to 30000
4 | Cc1nc2cc(F)c(-c3ccc(P(C)(C)=O)nc3)cc2c(N[C@@H](C)c2cncnc2)c1Cl (single isomer, unassigned) [Example 101] | 10000 to 30000
5 | Cc1nc2cc(F)c(-c3ccc(P(C)(C)=O)nc3)nc2c(N[C@@H](C)c2ncccc2F)c1Cl (single isomer, unassigned) [Example 117] | 1000 to 10000
6 | Cc1nc2cc(F)c(-c3ccc(P(C)(C)=O)nc3)nc2c(N[C@@H](c2cccc(F)c2F)C(F)F)c1Cl (single isomer, unassigned) [Example 145] | 10000 to 30000
7 | CC[C@@H](Nc1c(Cl)c(C)nc2cc(F)c(-c3ccc(P(C)(C)=O)c(F)c3)nc12)c1ncccc1F [Example 4, 3-chloro-6-[4-(dimethylphosphoryl)-3-fluorophenyl]-7-fluoro-N-[(1R)-1-(3-fluoropyridin-2-yl)propyl]-2-methyl-1,5-naphthyridin-4-amine] | ≤ 1000
8 | Cc1nc2ccc(-c3cnc(P(C)(C)=O)nc3)cc2c(N[C@H](C)c2cc(C#N)ccc2F)c1Cl [Example 6, 3-[(1R)-1-({3-chloro-6-[2-(dimethylphosphoryl)pyrimidin-5-yl]-2-methylquinolin-4-yl}amino)ethyl]-4-fluorobenzonitrile] | ≤ 1000
9 | Cc1nc2cc(F)c(-c3cnc(P(C)(C)=O)nc3)nc2c(N[C@H](C)c2ccccc2F)c1Cl [Example 7, 3-chloro-6-[2-(dimethylphosphoryl)pyrimidin-5-yl]-7-fluoro-N-[(1R)-1-(2-fluorophenyl)ethyl]-2-methyl-1,5-naphthyridin-4-amine] | ≤ 1000
10 | C[C@@H](Nc1c(Cl)cnc2cc(F)c(-c3cnc(P(C)(C)=O)nc3)cc12)c1cc(C#N)ccc1F [Example 12, 3-[(1R)-1-({3-chloro-6-[2-(dimethylphosphoryl)pyrimidin-5-yl]-7-fluoroquinolin-4-yl}amino)ethyl]-4-fluorobenzonitrile] | ≤ 1000
11 | C[C@@H](Nc1c(Cl)cnc2cc(F)c(-c3cnc(P(C)(C)=O)nc3)nc12)c1cc(C#N)ccc1F [Example 14, 3-[(1R)-1-({3-chloro-6-[2-(dimethylphosphoryl)pyrimidin-5-yl]-7-fluoro-1,5-naphthyridin-4-yl}amino)ethyl]-4-fluorobenzonitrile] | ≤ 1000
12 | CC[C@H](Nc1c(Cl)c(C)nc2cc(F)c(-c3cnc(P(C)(C)=O)nc3)nc12)c1ccccc1F [Example 17, 3-chloro-6-[2-(dimethylphosphoryl)pyrimidin-5-yl]-7-fluoro-N-[(1S)-1-(2-fluorophenyl)propyl]-2-methyl-1,5-naphthyridin-4-amine] | ≤ 1000
13 | Cc1nc2cc(F)c(-c3ccc(P(C)(C)=O)nc3)nc2c(N[C@H](C)c2ccccc2F)c1Cl [Example 18, 3-chloro-6-[6-(dimethylphosphoryl)pyridin-3-yl]-7-fluoro-N-[(1R)-1-(2-fluorophenyl)ethyl]-2-methyl-1,5-naphthyridin-4-amine] | ≤ 100
14 | Cc1nc2cc(F)c(-c3ccc(P(C)(C)=O)nc3)cc2c(N[C@H](C)c2ccccc2F)c1Cl [Example 19, 3-chloro-6-[6-(dimethylphosphoryl)pyridin-3-yl]-7-fluoro-N-[(1R)-1-(2-fluorophenyl)ethyl]-2-methylquinolin-4-amine] | ≤ 100
15 | CC[C@@H](Nc1c(Cl)c(C)nc2cc(F)c(-c3ccc(P(C)(C)=O)nc3)nc12)c1cc(C#N)ccc1F [Example 20, 3-[(1R)-1-({3-chloro-6-[6-(dimethylphosphoryl)pyridin-3-yl]-7-fluoro-2-methyl-1,5-naphthyridin-4-yl}amino)propyl]-4-fluorobenzonitrile] | ≤ 100
16 | COP(=O)(O)c1ccc(-c2nc3c(N[C@H](C)c4cc(C#N)ccc4F)c(Cl)c(C)nc3cc2F)cn1 [Example 21, ammonium methyl 5-(7-chloro-8-{[(1R)-1-(5-cyano-2-fluorophenyl)ethyl]amino}-3-fluoro-6-methyl-1,5-naphthyridin-2-yl)pyridin-2-ylphosphonate] | ≤ 1000

Other lines, results leading:

Row | IC50 [nM] | Structure (SMILES)
17 | ≤ 100 | Cc1nc2cc(F)c(-c3ccc(P(C)(C)=O)nc3)nc2c(N[C@@H](c2ccccc2F)C(F)F)c1Cl (single isomer, unassigned) [Example 25]
18 | ≤ 100 | CC[P@](C)(=O)c1ccc(-c2nc3c(N[C@H](C)c4cc(C#N)ccc4F)c(Cl)c(C)nc3cc2F)cn1 (single isomer, unassigned) [Example 58]
19 | ≤ 100 | Cc1nc2cc(F)c(-c3ccc(P(C)(C)=O)nc3)nc2c(N[C@H](C)c2ccc(F)c(F)c2F)c1Cl (single isomer, unassigned) [Example 109]
20 | ≤ 100 | Cc1nc2cc(F)c(-c3ccc(P(C)(C)=O)nc3)nc2c(N[C@@H](C)c2ccc(F)c(F)c2F)c1Cl (single isomer, unassigned) [Example 110]
21 | ≤ 100 | Cc1nc2cc(F)c(-c3ccc(P(C)(C)=O)nc3)nc2c(N[C@H](C)c2ncccc2F)c1Cl (single isomer, unassigned) [Example 116]
22 | ≤ 100 | Cc1nc2cc(F)c(-c3cnc(P(C)(C)=O)nc3)nc2c(N[C@H](C)c2cc(C#N)ccc2F)c1Cl [Example 1, 3-[(1R)-1-({3-chloro-6-[2-(dimethylphosphoryl)pyrimidin-5-yl]-7-fluoro-2-methyl-1,5-naphthyridin-4-yl}amino)ethyl]-4-fluorobenzonitrile]
23 | ≤ 100 | Cc1nc2cc(F)c(-c3ccc(P(C)(C)=O)nc3)nc2c(N[C@H](C)c2cc(C#N)ccc2F)c1Cl [Example 2, 3-[(1R)-1-({3-chloro-6-[6-(dimethylphosphoryl)pyridin-3-yl]-7-fluoro-2-methyl-1,5-naphthyridin-4-yl}amino)ethyl]-4-fluorobenzonitrile]
24 | ≤ 100 | Cc1nc2cc(F)c(-c3ccc(P(C)(C)=O)cc3)nc2c(N[C@H](C)c2cc(C#N)ccc2F)c1Cl [Example 3, 3-[(1R)-1-({3-chloro-6-[4-(dimethylphosphoryl)phenyl]-7-fluoro-2-methyl-1,5-naphthyridin-4-yl}amino)ethyl]-4-fluorobenzonitrile]
25 | ≤ 100 | Cc1nc2ccc(-c3ccc(P(C)(C)=O)nc3)cc2c(N[C@H](C)c2cc(C#N)ccc2F)c1Cl [Example 5, 3-[(1R)-1-({3-chloro-6-[6-(dimethylphosphoryl)pyridin-3-yl]-2-methylquinolin-4-yl}amino)ethyl]-4-fluorobenzonitrile]
26 | ≤ 100 | Cc1nc2cc(F)c(-c3cnc(P(C)(C)=O)nc3)cc2c(N[C@H](C)c2cc(C#N)ccc2F)c1Cl [Example 8, 3-[(1R)-1-({3-chloro-6-[2-(dimethylphosphoryl)pyrimidin-5-yl]-7-fluoro-2-methylquinolin-4-yl}amino)ethyl]-4-fluorobenzonitrile]
27 | ≤ 100 | CC[C@@H](Nc1c(Cl)c(C)nc2cc(F)c(-c3cnc(P(C)(C)=O)nc3)nc12)c1cc(C#N)ccc1F [Example 9, 3-[(1R)-1-({3-chloro-6-[2-(dimethylphosphoryl)pyrimidin-5-yl]-7-fluoro-2-methyl-1,5-naphthyridin-4-yl}amino)propyl]-4-fluorobenzonitrile]
28 | ≤ 100 | Cc1nc2cc(F)c(-c3ccc(P(C)(C)=O)nc3)cc2c(N[C@H](C)c2cc(C#N)ccc2F)c1Cl [Example 10, 3-[(1R)-1-({3-chloro-6-[6-(dimethylphosphoryl)pyridin-3-yl]-7-fluoro-2-methylquinolin-4-yl}amino)ethyl]-4-fluorobenzonitrile]
29 | ≤ 100 | Cc1nc2cc(F)c(-c3cnc(P(C)(C)=O)nc3)cc2c(N[C@H](C)c2ccccc2F)c1Cl [Example 11, 3-chloro-6-[2-(dimethylphosphoryl)pyrimidin-5-yl]-7-fluoro-N-[(1R)-1-(2-fluorophenyl)ethyl]-2-methylquinolin-4-amine]
30 | ≤ 100 | Cc1nc2cc(F)c(-c3ccc(P(C)(C)=O)nc3)nc2c(N[C@H](C)c2cc(C(N)=O)ccc2F)c1Cl [Example 13, 3-[(1R)-1-({3-chloro-6-[6-(dimethylphosphoryl)pyridin-3-yl]-7-fluoro-2-methyl-1,5-naphthyridin-4-yl}amino)ethyl]-4-fluorobenzamide]
31 | ≤ 100 | C[C@@H](Nc1c(Cl)cnc2cc(F)c(-c3ccc(P(C)(C)=O)nc3)nc12)c1cc(C#N)ccc1F [Example 15, 3-[(1R)-1-({3-chloro-6-[6-(dimethylphosphoryl)pyridin-3-yl]-7-fluoro-1,5-naphthyridin-4-yl}amino)ethyl]-4-fluorobenzonitrile]
32 | ≤ 100 | CC[C@@H](Nc1c(Cl)c(C)nc2cc(F)c(-c3cnc(P(C)(C)=O)nc3)nc12)c1ccccc1F [Example 16, 3-chloro-6-[2-(dimethylphosphoryl)pyrimidin-5-yl]-7-fluoro-N-[(1R)-1-(2-fluorophenyl)propyl]-2-methyl-1,5-naphthyridin-4-amine]

— patent publication US12338262B2 (Forward Therapeutics, Inc., priority 2022, dated 2025)
